# In US12344603B2 (Genentech, Inc., priority 2020, dated 2025):
# pIC50: −log10 of the molar value. Counter-ions that a name gives are not always drawn.
# Target: IRE1α (Homo sapiens (Human), UniProt O75460, D688N)
# Assay: IRE1α TR-FRET competition binding assay (IRE1α HTRF)
# Details: TR-FRET competition binding to kinase domain of IRE1α
# In short: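 Competition of compounds against an Alexa fluor 647 ATP-site probe (2 nM final) for the His-tagged kinase domain (0.25 nM final), detected via 2 nM Eu anti-His antibody by TR-FRET, 665 and 615 nm emission. Protein–antibody premix 1 h, 4° C; reaction 1 h, room temperature, pH 7.5 HEPES buffer.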
# Chain of IRE1α (O75460 547-977 D688N): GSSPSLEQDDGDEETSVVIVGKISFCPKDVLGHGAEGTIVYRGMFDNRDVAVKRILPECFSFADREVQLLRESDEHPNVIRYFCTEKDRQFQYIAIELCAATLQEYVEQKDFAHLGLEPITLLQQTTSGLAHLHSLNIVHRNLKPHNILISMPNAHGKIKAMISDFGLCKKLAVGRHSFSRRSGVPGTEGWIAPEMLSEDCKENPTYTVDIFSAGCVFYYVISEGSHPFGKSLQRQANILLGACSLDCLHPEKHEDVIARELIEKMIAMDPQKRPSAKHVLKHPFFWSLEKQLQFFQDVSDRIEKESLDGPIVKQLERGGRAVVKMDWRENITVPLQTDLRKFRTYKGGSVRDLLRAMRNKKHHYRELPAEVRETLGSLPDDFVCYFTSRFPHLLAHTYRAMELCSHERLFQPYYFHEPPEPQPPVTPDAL
row,pIC50,Compound
1,8.49,"CC(C)CC(=O)Nc1c(F)cc(-c2cc3cnc(N[C@H]4CC[C@H](N(C)C)CC4)nc3n(C(C)C)c2=O)c(F)c1F [Compound 59, N-(4-(2-(((1r,4r)-4-(Dimethylamino)cyclohexyl)amino)-8-isopropyl-7-oxo-7,8-dihydropyrido[2,3-d]pyrimidin-6-yl)-2,3,6-trifluorophenyl)-3-methylbutanamide]"
2,9.70,"CC(C)n1c(=O)c(-c2cc(F)c(NS(=O)(=O)CCC(F)(F)F)c(F)c2F)cc2cnc(NC3CCC(N(C)C)C(F)C3)nc21 (stereo not shown) [Compound 60, N-(4-(2-((4-(dimethylamino)-3-fluorocyclohexyl)amino)-8-isopropyl-7-oxo-7,8-dihydropyrido[2,3-d]pyrimidin-6-yl)-2,3,6-trifluorophenyl)-3,3,3-trifluoropropane-1-sulfonamide]"
3,9.51,"CC(C)n1c(=O)c(-c2cc(F)c(NS(=O)(=O)c3ccccc3Cl)c(F)c2F)cc2cnc(N[C@@H]3CNC[C@@H](F)C3)nc21 [Compound 61, 2-Chloro-N-(2,3,6-trifluoro-4-(2-(((3S,5S)-5-fluoropiperidin-3-yl)amino)-8-isopropyl-7-oxo-7,8-dihydropyrido[2,3-d]pyrimidin-6-yl)phenyl)benzenesulfonamide hydrochloride]"
4,8.66,"CC(C)n1c(=O)c(-c2cc(F)c(NC(=O)CC3CCC3)c(F)c2F)cc2cnc(N[C@H]3CC[C@H](N(C)C)CC3)nc21 [Compound 62, 2-Cyclobutyl-N-(4-(2-(((1r,4r)-4-(dimethylamino)cyclohexyl)amino)-8-isopropyl-7-oxo-7,8-dihydropyrido[2,3-d]pyrimidin-6-yl)-2,3,6-trifluorophenyl)acetamide]"
5,8.39,"CC(C)n1c(=O)c(-c2cc(F)c(NC(=O)[C@H]3C[C@H]3F)c(F)c2F)cc2cnc(N[C@H]3CC[C@H](N(C)C)CC3)nc21 [Compound 63, (1R,2R)—N-(4-(2-(((1r,4r)-4-(Dimethylamino)cyclohexyl)amino)-8-isopropyl-7-oxo-7,8-dihydropyrido[2,3-d]pyrimidin-6-yl)-2,3,6-trifluorophenyl)-2-fluorocyclopropane-1-carboxamide hydrochloride]"
6,9.68,"CC(C)n1c(=O)c(-c2ccc(NS(=O)(=O)Cc3ccccc3)c(F)c2)nc2cnc(N[C@@H]3CNC[C@@](C)(F)C3)nc21 [Compound 64, N-(2-Fluoro-4-(2-(((3S,5S)-5-fluoro-5-methylpiperidin-3-yl)amino)-8-isopropyl-7-oxo-7,8-dihydropteridin-6-yl)phenyl)-1-phenylmethanesulfonamide]"
7,9.62,"CC(C)n1c(=O)c(-c2ccc(NS(=O)(=O)Cc3ccccc3)c(F)c2)nc2cnc(N[C@@H]3CNC[C@H](CF)C3)nc21 [Compound 65, N-(2-Fluoro-4-(2-(((3S,5R)-5-(fluoromethyl)piperidin-3-yl)amino)-8-isopropyl-7-oxo-7,8-dihydropteridin-6-yl)phenyl)-1-phenylmethanesulfonamide]"
8,9.54,"CC(C)n1c(=O)c(-c2ccc(NS(=O)(=O)CCC(C)(F)F)c(F)c2)nc2cnc(N[C@H]3CC[C@H](N(C)C)CC3)nc21 [Compound 66, N-(4-(2-(((1r,4r)-4-(Dimethylamino)cyclohexyl)amino)-8-isopropyl-7-oxo-7,8-dihydropteridin-6-yl)-2-fluorophenyl)-3,3-difluorobutane-1-sulfonamide]"
9,9.74,"CC(C)n1c(=O)c(-c2ccc(NS(=O)(=O)CCC(F)(F)F)c(F)c2)nc2cnc(N[C@H]3CC[C@H](N(C)C)CC3)nc21 [Compound 67, N-(4-(2-(((1r,4r)-4-(Dimethylamino)cyclohexyl)amino)-8-isopropyl-7-oxo-7,8-dihydropteridin-6-yl)-2-fluorophenyl)-3,3,3-trifluoropropane-1-sulfonamide]"
10,9.89,"CC(C)n1c(=O)c(-c2ccc(NS(=O)(=O)Cc3ccccc3)c(F)c2)nc2cnc(N[C@H]3CC[C@H](N(C)C)CC3)nc21 [Compound 68, N-(4-(2-(((1r,4r)-4-(Dimethylamino)cyclohexyl)amino)-8-isopropyl-7-oxo-7,8-dihydropteridin-6-yl)-2-fluorophenyl)-1-phenylmethanesulfonamide]"
11,7.01,"CCn1c(=O)c(-c2cc(NS(=O)(=O)Cc3ccccc3)nn2C)cc2cnc(N[C@@H]3CNC[C@@H](F)C3)nc21 [Compound 69, N-(5-(8-ethyl-2-(((3S,5S)-5-fluoropiperidin-3-yl)amino)-7-oxo-7,8-dihydropyrido[2,3-d]pyrimidin-6-yl)-1-methyl-1H-pyrazol-3-yl)-1-phenylmethanesulfonamide]"
12,9.59,"CC(C)n1c(=O)c(-c2cc(F)c(NS(=O)(=O)CCC(F)(F)F)c(F)c2)cc2cnc(N[C@H]3CC[C@H](N(C)C)CC3)nc21 [Compound 70, N-(4-(2-(((1,4-trans)-4-(Dimethylamino)cyclohexyl)amino)-8-isopropyl-7-oxo-7,8-dihydropyrido[2,3-d]pyrimidin-6-yl)-2,6-difluorophenyl)-3,3,3-trifluoropropane-1-sulfonamide]"
13,9.60,"CC(C)n1c(=O)c(-c2cc(F)c(NS(=O)(=O)CCC(F)(F)F)cc2F)cc2cnc(N[C@H]3CC[C@H](N(C)C)CC3)nc21 [Compound 71, N-(4-(2-(((1,4-trans)-4-(Dimethylamino)cyclohexyl)amino)-8-isopropyl-7-oxo-7,8-dihydropyrido[2,3-d]pyrimidin-6-yl)-2,5-difluorophenyl)-3,3,3-trifluoropropane-1-sulfonamide formate]"
14,9.30,"Cc1cc(-c2nc3cnc(N[C@@H]4CNC[C@@H](F)C4)nc3n(C(C)C)c2=O)cc(F)c1NS(=O)(=O)Cc1ccccc1 [Compound 72, N-[2-Fluoro-4-[2-[[(3S,5S)-5-fluoro-3-piperidyl]amino]-8-isopropyl-7-oxo-pteridin-6-yl]-6-methyl-phenyl]-1-phenyl-methanesulfonamide]"
15,9.30,"CC(C)n1c(=O)c(-c2ccc(NS(=O)(=O)CCC(F)(F)F)c(F)c2)nc2cnc(N[C@@H]3CNC[C@@H](F)C3)nc21 [Compound 73, 3,3,3-Trifluoro-N-[2-fluoro-4-[2-[[(3S,5S)-5-fluoro-3-piperidyl]amino]-8-isopropyl-7-oxo-pteridin-6-yl]phenyl]propane-1-sulfonamide]"
16,9.22,"CC(C)n1c(=O)c(-c2ccc(NS(=O)(=O)c3ccccc3)c(F)c2)nc2cnc(N[C@@H]3CNC[C@@H](F)C3)nc21 [Compound 74, N-[2-Fluoro-4-[2-[[(3S,5S)-5-fluoro-3-piperidyl]amino]-8-isopropyl-7-oxo-pteridin-6-yl]phenyl]benzenesulfonamide]"
17,9.52,"CC(C)n1c(=O)c(-c2ccc(NS(=O)(=O)c3ccccc3Cl)c(F)c2)nc2cnc(N[C@@H]3CNC[C@@H](F)C3)nc21 [Compound 75, 2-Chloro-N-[2-fluoro-4-[2-[[(3S,5S)-5-fluoro-3-piperidyl]amino]-8-isopropyl-7-oxo-pteridin-6-yl]phenyl]benzenesulfonamide]"
18,9.05,"CC(C)n1c(=O)c(-c2ccc(NS(=O)(=O)CCC(F)(F)F)c(F)c2)nc2cnc(N[C@@H]3CNC[C@H](CF)C3)nc21 [Compound 76, 3,3,3-Trifluoro-N-[2-fluoro-4-[2-[[(3S,5R)-5-(fluoromethyl)-3-piperidyl]amino]-8-isopropyl-7-oxo-pteridin-6-yl]phenyl]propane-1-sulfonamide]"
19,9.10,"CC(C)n1c(=O)c(-c2ccc(NS(=O)(=O)CCC(C)(F)F)c(F)c2)nc2cnc(N[C@@H]3CNC[C@H](CF)C3)nc21 [Compound 77, 3,3-Difluoro-N-[2-fluoro-4-[2-[[(3S,5R)-5-(fluoromethyl)-3-piperidyl]amino]-8-isopropyl-7-oxo-pteridin-6-yl]phenyl]butane-1-sulfonamide]"
20,9.00,"CC(C)n1c(=O)c(-c2ccc(NS(=O)(=O)CCC(F)F)c(F)c2)nc2cnc(N[C@@H]3CNC[C@H](CF)C3)nc21 [Compound 78, 3,3-Difluoro-N-[2-fluoro-4-[2-[[(3S,5R)-5-(fluoromethyl)-3-piperidyl]amino]-8-isopropyl-7-oxo-pteridin-6-yl]phenyl]propane-1-sulfonamide]"
21,8.82,"CCCS(=O)(=O)Nc1ccc(-c2nc3cnc(N[C@@H]4CNC[C@H](CF)C4)nc3n(C(C)C)c2=O)cc1F [Compound 79, N-[2-Fluoro-4-[2-[[(3S,5R)-5-(fluoromethyl)-3-piperidyl]amino]-8-isopropyl-7-oxo-pteridin-6-yl]phenyl]propane-1-sulfonamide]"
22,9.70,"CC(C)n1c(=O)c(-c2ccc(NS(=O)(=O)Cc3ccccc3C#N)c(F)c2)nc2cnc(N[C@@H]3CNC[C@@H](F)C3)nc21 [Compound 80, 1-(2-Cyanophenyl)-N-[2-fluoro-4-[2-[[(3S,5S)-5-fluoro-3-piperidyl]amino]-8-isopropyl-7-oxo-pteridin-6-yl]phenyl]methanesulfonamide]"
23,10.00,"CC(C)n1c(=O)c(-c2ccc(NS(=O)(=O)Cc3ccc(C#N)cc3)c(F)c2)nc2cnc(N[C@@H]3CNC[C@@H](F)C3)nc21 [Compound 81, 1-(4-Cyanophenyl)-N-[2-fluoro-4-[2-[[(3S,5S)-5-fluoro-3-piperidyl]amino]-8-isopropyl-7-oxo-pteridin-6-yl]phenyl]methanesulfonamide]"
24,9.10,"CCCS(=O)(=O)Nc1ccc(-c2nc3cnc(N[C@@H]4CNC[C@@H](F)C4)nc3n(C(C)C)c2=O)cc1F [Compound 82, N-[2-Fluoro-4-[2-[[(3S,5S)-5-fluoro-3-piperidyl]amino]-8-isopropyl-7-oxo-pteridin-6-yl]phenyl]propane-1-sulfonamide]"
25,9.40,"CCC(F)(F)CS(=O)(=O)Nc1ccc(-c2nc3cnc(N[C@@H]4CNC[C@@H](F)C4)nc3n(C(C)C)c2=O)cc1F [Compound 83, 2,2-Difluoro-N-[2-fluoro-4-[2-[[(3S,5S)-5-fluoro-3-piperidyl]amino]-8-isopropyl-7-oxo-pteridin-6-yl]phenyl]butane-1-sulfonamide]"
